15 molecules from patent publication US20050192289A1, “Novel cinnamic amides” (Active Biotech AB, priority 2004, published 2005) can be followed below.

Counter-ions that a name gives are not always drawn.

Series [1] concerns the target T1, cloned human CCR1 Chemokine receptor (Homo sapiens, UniProt P32246).
T1 construct: purchased Perkin Elmer 6120525; host or cells: CHO cells
T1 sequence (P32246 1-355): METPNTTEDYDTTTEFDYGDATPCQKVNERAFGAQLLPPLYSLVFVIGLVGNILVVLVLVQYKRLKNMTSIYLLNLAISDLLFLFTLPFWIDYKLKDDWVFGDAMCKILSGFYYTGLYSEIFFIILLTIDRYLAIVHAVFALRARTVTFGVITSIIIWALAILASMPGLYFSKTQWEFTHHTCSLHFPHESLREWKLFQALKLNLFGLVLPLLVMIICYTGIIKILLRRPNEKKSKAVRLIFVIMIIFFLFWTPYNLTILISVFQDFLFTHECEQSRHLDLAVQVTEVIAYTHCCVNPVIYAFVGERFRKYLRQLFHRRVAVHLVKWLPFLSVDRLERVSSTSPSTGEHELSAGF
Nature of the series: In vitro competitive affinity binding assay (displacement of 125I-MIP-1α). Particulars: displacement of 125I-MIP-1α from cloned human CCR1 expressed in CHO cells, coated on FlashPlate; 1 hour, ambient temperature. From the text: In the competitive affinity binding assay, the binding affinity of the compounds for the CCR1 receptor can be determined by measuring their ability to displace ^125I-Mip-1α from the CCR1 receptor.
In vitro Competitive Affinity Binding Assay
• 1. Screen Ready™ Targets: cloned human CCR1 Chemokine receptor, expressed in CHO cells, coated on 96-well FlashPlate® (Perkin Elmer Cat #6120525) • 2. Ligand: ^125I-MIP-1α from Perkin Elmer (specific activity is 2200 Ci/mmol) was reconstituted to 25 μCi/L in H2O. • 3. Assay buffer: 50 mM HEPES, 1 mM CaCl2, 5 mM MgCl2, 0.2% BSA, pH 7.4. • 4. MIP-1α (Peprotech EC Ltd Cat # 300-08) • 5. The compounds of the invention were dissolved in DMSO. A serial dilution was made and ten concentrations of each compound were screened to generate a dose curve from which the IC50 value was determined. Assay Procedure:
Membranes coated on the FlashPlate® were incubated with ^125I-MIP-1α in the presence and absence of different concentrations of compounds at ambient temperature for 1 hour. The radioactivity in each well was determined in a microplate scintillation counter, The non-specific binding was defined by binding in the presence of 1250-fold unlabeled MIP-1α. The assay was performed according to the manufacturer's instruction of Screen Ready™ Targets.
A general note: Loss of bound radioactivity is the signal in a displacement assay; it reports binding, not function.

The target of series [2] is T2, CCR1 receptor (Homo sapiens, UniProt P32246).
T2 construct: host or cells: THP-1
T2 sequence (P32246 1-355): T1 sequence (P32246 1-355)
Nature of the series: In vitro Ca2+-flux assay on human monocytes (THP-1 cells stimulated with MIP-1α). The series is classed as cell-based. The conditions noted are these: block of MIP-1α mediated Ca2+ mobilisation in THP-1 cells; Fluo-4. How it is done:
The binding of Mip-1α at the CCR1 receptor leads to an increase of intracellular calcium levels. The ability of the compounds of the invention to block this biologic response of the CCR1 receptor is determined in the Ca^2+-flux assay.
In vitro Ca^2+-Flux Assay on Human Monocytes
• 1. Cell Culture: • a) THP-1 (ATCC Cat# TIB202) • b) Tissue culture medium: RPMI 1640 with Ultraglutamine 1 supplemented with 10% (v/v) foetal calf serum. This medium is hereinafter referred to as “growth medium”. • 2. Assay buffer: HMSS (Hanks' balanced salts solution), 20 mM HEPES, 1 mM CaCl2, 1 mM MgCl2, 2.5 mM Probenecid, pH 7.4. • 3. Fluo-4AM (Molecular Probes Cat # F14201) • 4. Pluronic® F-127 (Molecular Probes Cat # P-6867) • 5. The compounds of the invention were dissolved in DMSO. A serial dilution was made and nine concentrations of each compound were screened to generate a dose curve from which the IC50 value was determined. • 6. MIP-1α (Peprotech EC Ltd Cat # 300-08) • 7. Victor^2 1420 (Perkin Elmer) • 8. Microlite™ ^2+ (Dynex Cat # 7572) Assay Procedure:
THP-1 cells were grown in T-75 cm^2 flasks in growth medium at 37° C. in 5% CO2. The cells were harvested by centrifugation and resuspended in assay buffer. The cells were then loaded with 5 μM Fluo-4 and 0.02% pluronic acid (final concentrations) at 37° C. in 5% CO2 for 30 min. The excess dye was removed by washing with assay buffer. The cells were resuspended and 10^5 cells/well were added in a Microlite plate containing compounds and then incubated for 15 minutes at 37° C. in 5% CO2. The cells were then stimulated with MIP-1α and changes in intracellular free Ca^2+ concentration were measured with a Victor^2.
Background: Calcium flux is commonly read through the fluorescence of an indicator in the cells.

Series [3] can be described thus: In vivo bioavailability in the mouse (cassette dosing, i.v. or oral). The conditions noted are these: female mice (SJL/N Tac), nominal dose 1 mg/kg/compound; for half-life / clearance: mouse; for half-life: plasma half-life; for clearance: plasma; for F: oral bioavailability, F=(AUCinf,po/AUCinf,iv)·(Doseiv/Dosepo). As to the method: Female mice (SJL/N Tac) were given a single intravenous or oral dose of a mixture of 5 or 6 compounds per cassette (nominal dose: 1 mg/kg/compound) in a solution containing 0.5% N,N′-dimethylacetamide (DMA) and 15% sulfobutyl ether β-cyclodextrin (Captisol®). Blood samples were taken from one mouse per time point and dose group until 24 hour after respective administration. The dose formulations and plasma concentrations of each compound were determined by LC-MS/MS. The pharmacokinetic parameters were determined by non-compartmental analysis using WinNonlin Professional (version 4.0.1). The elimination rate constant, λ, was estimated by linear regression analysis of the terminal slope of the logarithmic plasma concentration-time curve. The area under the plasma concentration-time curve, AUC0-t, was calculated by using the linear/logarithmic trapezoidal rule. The AUCinf was calculated with the residual area estimated as Cz/λ. The calculated plasma concentration at the last time point, Cz, was obtained from the regression equation. The oral bioavailability (F) was calculated as: Foral=(AUCinf,po/AUCinf,iv)·Doseiv/Dosepo). Pharmacodynamic Assays

As a reminder, the IC50 is the concentration that inhibits the measured activity by half. High values mean a need for much substance, low ones inhibition by little substance. For the molecule `C[C@@H]1CN(C(=O)/C=C/c2ccc(Cl)c([N+](=O)[O-])c2)[C@@H](C)CN1Cc1ccc(Cl)cc1` (racemic) [Compound 5.2, (E)-(trans)-3-(4-Chloro-3-nitro-phenyl)-1-[4-(4-chloro-benzyl)-2,5-dimethyl-piperazine-1-yl]-prop-2-en-1-one], the IC50 in series [1] is 39 nM; in series [2], 6 nM.
In the case of `C[C@@H]1CN(C(=O)/C=C/c2ccc([N+](=O)[O-])cc2)[C@@H](C)CN1Cc1ccc(F)cc1` (racemic) [Compound 5.5, (E)-(trans)-1-[4-(4-Fluoro-benzyl)-2,5-dimethyl-piperazine-1-yl]-3-(4-nitro-phenyl)-prop-2-en-1-one], the IC50 came to 33 nM in series [1] and 23 nM in series [2].
In turn, `C[C@@H]1CN(C(=O)/C=C/c2ccc(Cl)cc2Cl)[C@@H](C)CN1Cc1ccc(F)cc1` (racemic) [Compound 5.6, (E)-(trans)-3-(2,4-Dichloro-phenyl)-]-[4-(4-fluoro-benzyl)-2,5-dimethyl-piperazine-1-yl]-prop-2-en-1-one hydrochloride] registered an IC50 in series [2] of 18 nM.
The term half-life denotes the time in which the quantity being followed falls by half. Regarding `C[C@@H]1CN(C(=O)/C=C/c2ccc3nonc3c2)[C@@H](C)CN1Cc1ccc(F)cc1` (racemic) [Compound 5.13, (E)-(trans)-3-Benzo[2,1,3]oxadiazol-5-yl-1-[4-(4-fluoro-benzyl)-2,5-dimethyl-piperazine-1-yl]-prop-2-en-1-one], in series [1], the IC50 turned out to be 43 nM. In series [2], this molecule registered an IC50 of 12 nM. In series [3], this molecule had a half-life of 2.3 h, a clearance of 58.3 mL/min/kg and an F of 29%.
`COc1cc(/C=C/C(=O)N2C[C@@H](C)N(Cc3ccc(F)cc3)C[C@@H]2C)cc(OC)c1OC` (racemic) [Compound 5.19, (E)-(trans)-1-[4-(4-Fluoro-benzyl)-2,5-dimethyl-piperazine-1-yl]-3-(3,4,5-trimethoxy-phenyl)-prop-2-en-1-one]: the results for the IC50 in series [1] and in series [2] were 17 nM and 8 nM, respectively.
In turn, `C[C@@H]1CN(C(=O)/C=C/c2cc(Cl)c3nsnc3c2)[C@@H](C)CN1Cc1ccc(F)cc1` (racemic) [Compound 5.46, (E)-(trans)-3-(4-Chloro-benzo[2,1,3]thiadiazol-6-yl)-1-[4-(4-fluorobenzyl)-2,5-dimethyl-piperazine-1-yl]-prop-2-en-1-one] returned an IC50 in series [2] of 7 nM. That is a single-digit nanomolar value.
As to `C[C@@H]1CN(C(=O)/C=C/c2ccc(Cl)cc2)[C@@H](C)CN1Cc1ccc(F)cc1` (racemic) [Compound 6.1, (E)-(trans)-3-(4-Chloro-phenyl)-1-[4-(4-fluoro-benzyl)-2,5-dimethyl-piperazine-1-yl]-prop-2-en-1-one], the IC50 in series [1] was 14 nM. In addition, the IC50 in series [2] came to 9 nM. In series [3], the half-life was 5.3 h, the clearance was 80 mL/min/kg and the F stood at 62%.
Turning to `C[C@@H]1CN(C(=O)/C=C/c2ccc(Cl)c([N+](=O)[O-])c2)[C@@H](C)CN1Cc1ccc(F)cc1` (racemic) [Compound 6.2, (E)-(trans)-3-(4-Chloro-3-nitro-phenyl)-1-[4-(4-fluoro-benzyl)-2,5-dimethyl-piperazne-1-yl]-prop-2-en-1-one], the results for the IC50 in series [1] and in series [2] were 21 nM and 4 nM, respectively.
For the molecule `C[C@@H]1CN(C(=O)/C=C\c2ccc(Cl)cc2)[C@@H](C)CN1Cc1ccc(F)cc1` (racemic) [Compound 8.1, (Z)-(trans)-3-(4-Chloro-phenyl)-1-[4-(4-fluoro-benzyl)-2,5-dimethyl-piperazine-1-yl]-prop-2-en-1-one, reference compound], the IC50 is over 1000 nM in series [1] and 207 nM in series [2].
In the case of `C[C@H]1CN(C(=O)/C=C/c2ccc(Cl)cc2)[C@@H](C)CN1Cc1ccc(F)cc1` (racemic) [Compound 9.1, (E)-(cis)-3-(4-Chloro-phenyl)-1-[4-(4-fluoro-benzyl)-2,5-dimethyl-piperazine-1-yl]-prop-2-en-1-one, reference compound], the IC50 in series [2] worked out at 910 nM.
On to `O=C(/C=C/c1ccc(Cl)cc1)N1CCN(Cc2ccc(F)cc2)CC1` [B, 3-(4-chloro-phenyl)-1-[4-(4-fluoro-benzyl)-piperazine-1-yl]-prop-2-en-1-one, reference compound], for which the IC50 in series [1] is 235 nM; in series [2], 63 nM.
Regarding `O=C(/C=C\c1ccc(Cl)cc1)N1CCN(Cc2ccc(F)cc2)CC1` [Compound 8.2, (Z)-3-(4-Chloro-phenyl)-1-[4-(4-fluoro-benzyl)-piperazine-1-yl]-prop-2-en-1-one, reference compound], the IC50 in series [1] and in series [2] was over 1000 nM in each case.
Turning to `COc1cc(/C=C/C(=O)N2CCN(Cc3ccc(F)cc3)CC2)cc(OC)c1OC` [Compound A, 1-[4-(4-Fluoro-benzyl)-piperazine-1-yl]-3-(3,4,5-trimethoxy-phenyl)-prop-2-en-1-one, reference compound], the results for the IC50 in series [1] and in series [2] were 565 nM and 110 nM, respectively.
Turning to `O=C(/C=C/c1ccc(Cl)cc1Cl)N1CCN(Cc2ccc(Cl)cc2)CC1` [Compound C, 1-(4-chlorobenzyl)-4-(2,4-dichlorocinnamoyl)-piperazine, reference compound], in series [2], the midpoint of inhibition, the IC50, lay at 120 nM.
On to `C[C@@H]1CN(Cc2ccc(F)cc2)C[C@H](C)N1C(=O)/C=C/c1ccc(Cl)cc1` [F, reference compound], for which the IC50 was over 1000 nM in series [1] and 416 nM in series [2].
